Reference: ChEMBL document CHEMBL1124059, “Atypical antipsychotic agents: patterns of activity in a series of 3-substituted 2-pyridinyl-1-piperazine derivatives” (J Med Chem, 1988)
The source made the active and inactive calls. The rule behind the calls is not given here.

What was measured:
[1] = target: T1, Adrenergic receptor alpha-1 (Rattus norvegicus, UniProt P15823+P23944+P43140); assay: Ability to inhibit [3H]WB-4101 binding to rat cortical alpha-1-adrenergic receptor; type: protein assay
T1 sequence (P15823 whole entry): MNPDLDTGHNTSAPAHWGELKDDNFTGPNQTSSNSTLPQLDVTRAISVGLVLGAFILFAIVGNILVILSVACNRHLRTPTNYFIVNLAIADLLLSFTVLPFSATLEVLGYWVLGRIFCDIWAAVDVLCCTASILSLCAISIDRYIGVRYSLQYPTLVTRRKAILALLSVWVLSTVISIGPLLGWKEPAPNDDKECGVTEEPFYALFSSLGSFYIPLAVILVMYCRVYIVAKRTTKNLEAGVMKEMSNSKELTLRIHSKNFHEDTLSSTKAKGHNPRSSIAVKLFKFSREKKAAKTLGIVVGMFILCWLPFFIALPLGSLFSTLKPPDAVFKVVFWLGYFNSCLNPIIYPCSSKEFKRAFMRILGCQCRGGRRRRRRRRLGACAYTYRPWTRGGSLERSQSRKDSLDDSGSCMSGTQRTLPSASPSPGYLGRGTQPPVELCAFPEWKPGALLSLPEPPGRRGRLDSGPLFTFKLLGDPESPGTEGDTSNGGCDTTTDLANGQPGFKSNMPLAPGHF
T1 sequence (P23944 whole entry): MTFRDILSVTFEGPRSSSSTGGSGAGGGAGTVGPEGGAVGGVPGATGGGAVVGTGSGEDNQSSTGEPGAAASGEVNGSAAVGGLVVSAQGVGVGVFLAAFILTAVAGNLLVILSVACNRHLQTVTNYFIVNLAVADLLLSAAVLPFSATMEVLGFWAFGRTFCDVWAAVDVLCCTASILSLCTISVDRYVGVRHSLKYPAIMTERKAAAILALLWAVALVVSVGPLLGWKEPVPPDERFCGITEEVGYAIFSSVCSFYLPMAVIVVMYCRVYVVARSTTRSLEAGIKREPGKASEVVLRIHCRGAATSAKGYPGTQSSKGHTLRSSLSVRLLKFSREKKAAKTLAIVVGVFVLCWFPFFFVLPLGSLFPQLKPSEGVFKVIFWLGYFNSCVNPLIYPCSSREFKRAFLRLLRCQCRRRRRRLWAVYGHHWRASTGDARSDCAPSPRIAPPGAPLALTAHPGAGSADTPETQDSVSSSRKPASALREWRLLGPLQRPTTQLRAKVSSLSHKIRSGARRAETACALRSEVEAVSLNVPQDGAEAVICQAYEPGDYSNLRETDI
T1 sequence (P43140 whole entry): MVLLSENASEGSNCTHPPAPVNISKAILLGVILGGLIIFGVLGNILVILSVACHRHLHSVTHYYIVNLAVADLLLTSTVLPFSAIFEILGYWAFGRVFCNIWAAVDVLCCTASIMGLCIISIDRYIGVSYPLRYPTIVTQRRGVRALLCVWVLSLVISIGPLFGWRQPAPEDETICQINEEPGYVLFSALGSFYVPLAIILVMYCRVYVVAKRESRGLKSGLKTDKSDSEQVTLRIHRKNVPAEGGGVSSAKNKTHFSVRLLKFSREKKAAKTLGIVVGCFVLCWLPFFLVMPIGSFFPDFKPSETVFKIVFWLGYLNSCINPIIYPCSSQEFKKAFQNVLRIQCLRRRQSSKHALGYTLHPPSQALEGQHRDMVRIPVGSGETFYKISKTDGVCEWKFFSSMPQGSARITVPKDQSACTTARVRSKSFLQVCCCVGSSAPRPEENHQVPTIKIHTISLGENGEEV

D(2) dopamine receptor = D(2) dopamine receptor (Rattus norvegicus, UniProt P61169); assay: Ability to inhibit [3H]spiperone binding to Dopamine receptor D2 in rat corpus striatum; type: tissue-based
Chain of D(2) dopamine receptor (P61169 whole entry): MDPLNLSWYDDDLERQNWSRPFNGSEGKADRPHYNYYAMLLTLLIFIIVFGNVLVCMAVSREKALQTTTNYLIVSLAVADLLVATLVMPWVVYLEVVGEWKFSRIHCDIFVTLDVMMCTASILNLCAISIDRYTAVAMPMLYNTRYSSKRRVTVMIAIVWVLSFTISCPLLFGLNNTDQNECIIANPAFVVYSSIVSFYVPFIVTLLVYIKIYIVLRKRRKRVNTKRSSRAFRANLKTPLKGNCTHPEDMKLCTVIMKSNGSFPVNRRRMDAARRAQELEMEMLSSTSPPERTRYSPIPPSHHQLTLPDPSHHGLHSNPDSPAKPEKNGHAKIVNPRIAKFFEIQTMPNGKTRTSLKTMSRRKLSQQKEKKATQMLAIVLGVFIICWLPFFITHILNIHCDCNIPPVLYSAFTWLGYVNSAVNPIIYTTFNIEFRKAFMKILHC

Rattus norvegicus [2] = species on record: Rattus norvegicus; assay: Inhibition of the rat conditioned avoidance response, CAR (Tranquilizing activity, peroral); type: functional; settings: po
Rattus norvegicus [3] = assay: In vivo inhibition of apomorphine (APO) induced stereotypy in rats (po); type: functional
Rattus norvegicus [4] = assay: Ability to reverse trifluoperazine-induced catalepsy in rat (po); type: functional
Rattus norvegicus [5] = assay: Ability to reverse trifluoperazine-induced catalepsy in rat (po); IA = Compound induced catalepsy; type: functional, organism-based
Rattus norvegicus [6] = assay: Induction of catalepsy in rat (po)

SMILES	IC50 [1] [nM]	IC50 (D(2) dopamine receptor) [nM]	ED50 (Rattus norvegicus [2]) [mg/kg]	ED50 (Rattus norvegicus [3]) [mg/kg]	ED50 (Rattus norvegicus [4]) [mg/kg]	ED50 (Rattus norvegicus [5])	ED50 (Rattus norvegicus [6]) [mg/kg]
O=C1COCC(=O)N1CCCCN1CCN(c2ncccc2Cl)CC1	16	> 1000	59.8	> 63			
O=C1SC2(CCCC2)C(=O)N1CCCCN1CCN(c2ncccc2[N+](=O)[O-])CC1	34.1	69	25.3	43.6	44.2		
Cc1nnc(-c2cccnc2N2CCN(CCCCN3C(=O)CC4(CCCC4)CC3=O)CC2)o1		610	70.9				
COc1cccnc1N1CCN(CCCCN2C(=O)SC3(CCCC3)C2=O)CC1		79	18.8	< 57		inactive	
O=C1SC2(CCCC2)C(=O)N1CCCCN1CCN(c2ccccn2)CC1		620	20.8	> 95		inactive	
CC1(C)CC(=O)N(CCCCN2CCN(c3ncccc3Cl)CC2)C(=O)C1		360	25.9				104
COC(=O)c1cccnc1N1CCN(CCCCN2C(=O)CC(C)(C)CC2=O)CC1	36.9	> 1000	57	69.2			228
O=C1SC2(CCCC2)C(=O)N1CCCCN1CCN(c2ncccc2-c2ccccc2)CC1		236	> 100	> 100		inactive	
O=C1CSC(=O)N1CCCCN1CCN(c2ccccn2)CC1		> 1000	45.8			inactive	
CC1(C)CC(=O)N(CCCCN2CCN(c3ncccc3-c3ccccc3)CC2)C(=O)C1		109	67.6				90.8
Cc1cccnc1N1CCN(CCCCN2C(=O)CC(C)(C)CC2=O)CC1		> 1000	42.1	> 100			> 200
N#Cc1cccnc1N1CCN(CCCCN2C(=O)CSC2=O)CC1	39	> 1000	15.8	> 100		inactive	
O=C1COCC(=O)N1CCCCN1CCN(c2ncccc2[N+](=O)[O-])CC1	38.3	> 1000	55				220
COc1cccc(N2CCN(CCCCN3C(=O)SC4(CCCC4)C3=O)CC2)n1		> 1000	35.9	> 100		inactive	
N#Cc1cccnc1N1CCN(CCCCN2C(=O)SC3(CCCC3)C2=O)CC1	35	34	38	29.3	9.2		
O=C1SC2(CCCC2)C(=O)N1CCCCN1CCN(c2ncccc2Cl)CC1	19.9	160	66.9	50		inactive	
Cc1cccnc1N1CCN(CCCCN2C(=O)SC3(CCCC3)C2=O)CC1		630	46.4	> 50		inactive	
CN1CCN(C2=Nc3cc(Cl)ccc3Nc3ccccc32)CC1						inactive	
O=C1COCC(=O)N1CCCCN1CCN(c2ncccc2-c2ccccc2)CC1	16	> 41	> 100	> 63			
COc1cccc(N2CCN(CCCCN3C(=O)CC(C)(C)CC3=O)CC2)n1	68	> 1000	11.9	76.2			48
Nc1cccnc1N1CCN(CCCCN2C(=O)SC3(CCCC3)C2=O)CC1		> 1000	> 100			inactive	
Cc1cccnc1N1CCN(CCCCN2C(=O)CC3(CCCC3)CC2=O)CC1		476	46.4				> 186
CO/N=C\c1cccnc1N1CCN(CCCCN2C(=O)SC3(CCCC3)C2=O)CC1	67.4	428	71.3			inactive	
COC(=O)c1cccnc1N1CCN(CCCCN2C(=O)SC3(CCCC3)C2=O)CC1	7.8	138	29.8	50.2	5.05		
O=Cc1cccnc1N1CCN(CCCCN2C(=O)SC3(CCCC3)C2=O)CC1	9.6	130	60	48	12.9		
O=Cc1cccnc1N1CCN(CCCCN2C(=O)COCC2=O)CC1		> 1000	> 100				
